The subject of the data set is CCRIS mutagenicity, Ames/micronucleus/aberration tests. As to the kind of experiment: CCRIS mutagenicity studies.

Each structure is given as a SMILES string. The source made the active and inactive calls. How the calls were made is not given here.

With `O=[N+]([O-])c1c(O)cc2c3c(cccc13)-c1ccccc1-2`, the mutagenic call is, setting by setting: (Test System: AMES SALMONELLA TYPHIMURIUM, Strain/Indicator: TA98, Metabolic Activation: NONE, Method: STANDARD PLATE) “active; positive”; (Test System: AMES SALMONELLA TYPHIMURIUM, Strain/Indicator: TA98, Metabolic Activation: RAT, LIVER, S-9, AROCLOR 1254, Method: STANDARD PLATE) “active; positive”.

With `Nc1cc([N+](=O)[O-])ccc1O`, the mutagenic call by setting is: (End Point: IN VITRO CHROMOSOMAL ABERRATIONS, Test System: CHO CELLS, Metabolic Activation: NONE) “active; positive; precipitation occurred at all concentrations”; (End Point: IN VITRO CHROMOSOMAL ABERRATIONS, Test System: CHO CELLS, Metabolic Activation: RAT, LIVER, S-9, AROCLOR 1254) “active; positive; precipitation occurred at both concentrations”; (Test System: AMES SALMONELLA TYPHIMURIUM, Strain/Indicator: TA98, Metabolic Activation: HAMSTER, LIVER, S-9, AROCLOR 1254 (10%), Method: PREINCUBATION) “active; positive”; (Test System: AMES SALMONELLA TYPHIMURIUM, Strain/Indicator: TA98, Metabolic Activation: HAMSTER, LIVER, S-9, AROCLOR 1254, Method: PREINCUBATION) “active; positive”; (Test System: AMES SALMONELLA TYPHIMURIUM, Strain/Indicator: TA98, Metabolic Activation: NONE, Method: PREINCUBATION) “inactive; negative”; (Test System: AMES SALMONELLA TYPHIMURIUM, Strain/Indicator: TA98, Metabolic Activation: RAT, LIVER, S-9, AROCLOR 1254 (10%), Method: PREINCUBATION) “inactive; negative”. Besides, the mutagenic call was “inactive; negative” (Test System: AMES SALMONELLA TYPHIMURIUM, Strain/Indicator: TA98, Metabolic Activation: RAT, LIVER, S-9, AROCLOR 1254, Method: PREINCUBATION); “inactive; negative” (Test System: AMES SALMONELLA TYPHIMURIUM, Strain/Indicator: TA100, Metabolic Activation: RAT, LIVER, S-9, AROCLOR 1254 (10%), Method: PREINCUBATION); “inactive; negative” (Test System: AMES SALMONELLA TYPHIMURIUM, Strain/Indicator: TA100, Metabolic Activation: RAT, LIVER, S-9, AROCLOR 1254, Method: PREINCUBATION); “inactive; negative” (Test System: AMES SALMONELLA TYPHIMURIUM, Strain/Indicator: TA1535, Metabolic Activation: HAMSTER, LIVER, S-9, AROCLOR 1254 (10%), Method: PREINCUBATION); “inactive; negative” (Test System: AMES SALMONELLA TYPHIMURIUM, Strain/Indicator: TA1535, Metabolic Activation: HAMSTER, LIVER, S-9, AROCLOR 1254, Method: PREINCUBATION); “inactive; negative” (Test System: AMES SALMONELLA TYPHIMURIUM, Strain/Indicator: TA1535, Metabolic Activation: RAT, LIVER, S-9, AROCLOR 1254 (10%), Method: PREINCUBATION). Also, the mutagenic call is, setting by setting: (Test System: AMES SALMONELLA TYPHIMURIUM, Strain/Indicator: TA1535, Metabolic Activation: RAT, LIVER, S-9, AROCLOR 1254, Method: PREINCUBATION) “inactive; negative”; (Test System: AMES SALMONELLA TYPHIMURIUM, Strain/Indicator: TA1537, Metabolic Activation: HAMSTER, LIVER, S-9, AROCLOR 1254 (10%), Method: PREINCUBATION) “inactive; negative”; (Test System: AMES SALMONELLA TYPHIMURIUM, Strain/Indicator: TA1537, Metabolic Activation: HAMSTER, LIVER, S-9, AROCLOR 1254, Method: PREINCUBATION) “inactive; negative”; (Test System: AMES SALMONELLA TYPHIMURIUM, Strain/Indicator: TA1537, Metabolic Activation: RAT, LIVER, S-9, AROCLOR 1254 (10%), Method: PREINCUBATION) “inactive; negative”; (Test System: AMES SALMONELLA TYPHIMURIUM, Strain/Indicator: TA1537, Metabolic Activation: RAT, LIVER, S-9, AROCLOR 1254, Method: PREINCUBATION) “inactive; negative”; (Test System: MOUSE LYMPHOMA, Strain/Indicator: L5178Y (TK+/TK-), Metabolic Activation: NONE, Method: SUSPENSION/PLATE) “active; positive”.

Consider `c1ccc2c(c1)-c1c(ccc3ccccc13)C1OC21` (stereo not given), for which the mutagenic call is, setting by setting: (Test System: AMES SALMONELLA TYPHIMURIUM, Strain/Indicator: TA98, Metabolic Activation: NONE, Method: PREINCUBATION (KCL-CONTAINING MEDIUM)) “active; positive”; (Test System: AMES SALMONELLA TYPHIMURIUM, Strain/Indicator: TA98, Metabolic Activation: NONE, Method: PREINCUBATION (KCL-FREE MEDIUM)) “active; positive”; (Test System: AMES SALMONELLA TYPHIMURIUM, Strain/Indicator: TA100, Metabolic Activation: NONE, Method: PREINCUBATION (KCL-CONTAINING MEDIUM)) “active; positive”; (Test System: AMES SALMONELLA TYPHIMURIUM, Strain/Indicator: TA100, Metabolic Activation: NONE, Method: PREINCUBATION (KCL-FREE MEDIUM)) “active; positive”.

On to `CCN(N=O)C(=O)Nc1ccccc1`, for which the mutagenic call (End Point: IN VITRO CHROMOSOMAL ABERRATIONS, Test System: CHINESE HAMSTER V79-E CELLS, Metabolic Activation: NONE) was “active; positive (structural changes)”.

(Values after PubChem BioAssay AID1259407 (Chemical Carcinogenesis Research Information System (CCRIS), 2018).)
